In PubChem BioAssay AID720714 (Broad Institute, 2013):
The source made the active and inactive calls. The rule behind the calls is not given here.

Tested on: not listed separately
Assay: HepG2 cell cytotoxicity, dose response, cytotoxicity control, plate reader, dry powder, set 3 (AID 720714)
Details: HepG2 cytotoxicity, plate reader; at 26 µM (top of the series)

Row | Structure (SMILES) | activity change, negative = cytotoxicity
1 | COc1ccc2c(c1)c(CC(=O)Nc1cc(C)ccc1C)c(C)n2C(=O)c1ccc(Cl)cc1 | 8.4% (inactive)
2 | Cc1cc(N2CCCC2=O)cc(C)c1S(=O)(=O)NCCOc1ccc(C(C)(C)C)cc1 | 15.4% (inactive)
3 | CC(C)[C@H](NC(=O)OC(C)(C)C)c1nnc(S(=O)(=O)Cc2c(F)cccc2Cl)o1 | -90.6% (inactive)
4 | CCCOc1ccccc1C1CC(=O)Nc2cc3c(cc21)OCO3 (stereo unspecified) | 73.2% (inactive)
5 | CC(=O)N1CCN(C(=O)CCc2cc(C(C)(C)C)c(O)c(C(C)(C)C)c2)CC1 | 84.8% (inactive)
6 | O=c1c2ccccc2nc2n1C(CSCc1ccc(Cl)cc1Cl)CS2 (stereo unspecified) | -17.2% (inactive)
7 | COc1ccccc1N1CCN(c2ncc(C(=O)N3CCN(c4cccc(Cl)c4)CC3)c3ccccc23)CC1 | 111% (inactive)
8 | COc1ccc(NC(=O)c2nc(S(=O)(=O)Cc3cccc(C)c3)ncc2Cl)c(OC)c1 | -19.7% (inactive)
9 | Nc1nonc1C(=O)NCCNCc1cc(Br)ccc1OCc1ccc(F)cc1 | -54.9% (inactive)
10 | COc1ccc(NS(=O)(=O)c2ccc(C(=O)N3CCCCCC3)cc2)cc1 | 41.5% (inactive)
11 | COc1cc2ncnc(N[C@H](C)c3ccccc3)c2cc1OC | 45.6% (inactive)
12 | Cc1ccc2cc(CN(CC3CCCO3)C(=O)NC3CCCCC3)c(=O)[nH]c2c1C (stereo unspecified) | 64.3% (inactive)
13 | CC(=O)Nc1cccc(NC(=O)CSc2ncc(-c3ccc(Cl)cc3)n2Cc2ccco2)c1 | -23% (inactive)
14 | Cc1cc2c(cc(C(=O)N3CCC(C(=O)NC4CCCC4)CC3)n2Cc2c(F)cccc2Cl)o1 | 132% (inactive)
15 | COc1ccc(Nc2nc(N3CCCCC3)c3ccccc3n2)cc1 | -24.8% (inactive)
16 | O=C1CSc2ccc(C(=O)Nc3cccc(S(=O)(=O)Nc4ccc(Br)cc4)c3)cc2N1 | -35.1% (inactive)
17 | CN(C(=O)COc1ccccc1C(=O)NCCOc1ccccc1)c1ccccc1 | -26.1% (inactive)
18 | CCOC(=O)C1CCN(C(=O)c2ccc(OCC(=O)Nc3cccc(C(F)(F)F)c3)c(OC)c2)CC1 | 11.7% (inactive)
19 | CN(CC(=O)Nc1cccc(S(=O)(=O)N2CCOCC2)c1)CC(=O)Nc1ccc(Cl)c(C(F)(F)F)c1 | -15.1% (inactive)
20 | CCCc1nnc(NC(=O)c2nc(S(=O)(=O)Cc3ccc(C)cc3)ncc2Cl)s1 | 26.2% (inactive)
21 | Fc1ccc(-n2nnnc2-c2cnc(-c3cccs3)nc2C(F)(F)F)cc1 | 23.6% (inactive)
22 | CN(C)S(=O)(=O)c1cccc(NC(=O)c2cccc(S(=O)(=O)N3CCc4ccccc43)c2)c1 | 10.3% (inactive)

Tested on: HepG2 cytotoxicity, plate reader
Assay: as above
Details: not given

Row | Structure (SMILES) | AC50 [µM]
23 | CC(C)(C)NC(=O)CSc1nc2ccc(NC(=O)CSc3nnnn3Cc3ccccc3)cc2s1 | 15.5
24 | COc1cc(CN2CCc3ccccc3C2)ccc1O | 21.6
25 | CN(C)c1nc(-c2ccccn2)nnc1-c1ccccc1 | 26.5
26 | O=C(c1nnsc1S(=O)c1ccc(Cl)cc1)N1CCOCC1 (stereo unspecified) | 14.5
